{
  "source": "paper PMC8359193",
  "about": "“Summary of reference chemicals evaluated by the fish short‐term reproduction assay, OECD TG229, using Japanese Medaka, Oryzias latipes” (Journal of Applied Toxicology, 2021)",
  "key": {"[1]": {"tested_on": "Japanese medaka (Oryzias latipes)", "experiment": "Fish short-term reproduction assay (FSTRA, OECD TG229), 21-day flow-through exposure", "details": "for Fertility rate (%) / Mortality (%) Female / Mortality (%) Male / Number of fertilized eggs / Number of total eggs / SSC Female / SSC Male / VTG (ng/mg of liver) Female / VTG (ng/mg of liver) Male: 21 days; for GSI Female / GSI Male / HSI Female / HSI Male / Length Female / Length Male / Weight Female / Weight Male: at completion of exposure", "description": "The experimental studies on the FSTRA for the 16 chemicals were conducted in two laboratories in Japan, the National Institute for Environmental Studies (NIES, Lab‐1) and the Institute of Environmental Ecology, IDEA Consultants Inc. (Lab‐2), in accordance with OECD TG229 (OECD, [2012a]) (Table 1).\nThe NIES‐R strain of Japanese medaka (O. latipes), one of the orange‐red varieties, was used in all the 16 chemical studies. For the studies, healthy and mature male and female medakas at 16 ± 2 weeks old were selected from a single‐stock population, which were bred within the test facilities. The test fish were maintained in conditions similar to the assay for at least 7 days, and spawning status was checked during the acclimation period. On the day the chemical exposure commenced, to ensure balanced distribution of test fish between the treatment groups for the reproductive status of the fish, the replicate vessels (fish tanks), with each containing three male and female medaka, were distributed to each treatment and control group, for example, by a randomized block design based on the number of fertilized eggs laid in the last 5–7 days during the acclimation, in each assay.\nThe water solubility of the test chemical was also taken into consideration when deciding the highest test concentration. To set the lower concentrations, a spacing factor ranging between two and five was used. All assays included a dilution water control (DWC).\nTest solutions at the selected concentrations were prepared by diluting a stock solution, which was prepared by an adequate method depending on the physicochemical properties of the test chemicals, for example, by simply mixing the test chemical in dilution water by stirring and/or sonicating for an appropriate time or by using a solid–liquid saturator. In the two laboratories, flow‐through exposure systems, in which a series of test solutions at the target concentrations can be continuously prepared and delivered to test vessels at controlled flow rates (Haselman et al., [2016]; Watanabe et al., [2017]), were used for the exposure experiments.\nIn the FSTRA, three mature adult males and females in a test vessel were exposed together to the test chemicals in flow‐through condition for 3 weeks. In all the assays, each treatment group, including the DWC group, contained four replicate tanks. During the exposure period, the fish were fed a sufficient amount of live brine shrimp nauplii (newly hatched Artemia sp.) for daily spawning ad libitum. Fecal material in the tanks was appropriately removed by siphoning after feeding. Water temperature of test solutions was recorded for at least one vessel in each treatment and control group every day and for all vessels at least once a week. Furthermore, dissolved oxygen and pH of test solutions were measured for all test vessels at least once a week. Mortality and abnormal behavior and appearance in the fish exposed to test chemicals were daily observed, and any fish that died were removed from the tank as soon as possible. To assess the reproductive status, all eggs females spawned were collected every day. At the completion of the chemical exposure, surviving fish in each tank were sampled.\nThe eggs females released on the bottom of the tank were collected by siphoning, and the egg clutches still on female abdomen were carefully picked from the body of the females captured using a small net. All the eggs collected were microscopically observed and separately counted for fertilized and unfertilized."}, "Japanese medaka": {"tested_on": "Japanese medaka", "details": "MMT; ref Flynn et al. (2017); cited from earlier work"}, "[2]": {"details": "hepatic VTG, 21-day exposure, measured conc."}},
  "note": "Counter-ions that a name gives are not always drawn.",
  "data": [
    {"smiles": "CC/C(=C(\\c1ccccc1)c1ccc(OCCN(C)C)cc1)c1ccccc1", "note": "[TAM, tamoxifen citrate]", "values": [
      {"measurement": "time from initiation of treatment to drastic reduction of daily fecundity", "setting": "[1]; both, NIES-R, Japanese medaka (Oryzias latipes), in vivo", "result": "≤ 3", "unit": "days"},
      {"measurement": "LOEC for VTG induction in males", "setting": "[1]; [2]", "result": 10.0, "unit": "µg/L"},
      {"measurement": "LOEC for decrease of VTG in females", "setting": "[1]; [2]", "result": 10.0, "unit": "µg/L"},
      {"measurement": "LOEC on female VTG: times lower than that for RAL", "setting": "[1]; in vivo", "result": 70, "unit": "times"},
      {"measurement": "Fertility rate (%)", "setting": "[1]; measured conc. 10.0 μg/L", "result": 94, "unit": "%"},
      {"measurement": "Mortality (%) Female", "setting": "[1]; measured conc. 10.0 μg/L", "result": 0, "unit": "%"},
      {"measurement": "Mortality (%) Male", "setting": "[1]; measured conc. 10.0 μg/L", "result": 0, "unit": "%"},
      {"measurement": "Number of fertilized eggs", "setting": "[1]; measured conc. 10.0 μg/L", "result": 12},
      {"measurement": "Number of total eggs", "setting": "[1]; measured conc. 10.0 μg/L", "result": "13 ± 1.1 /female/day"},
      {"measurement": "SSC Female", "setting": "[1]; measured conc. 10.0 μg/L", "result": "0 ± 0"},
      {"measurement": "SSC Male", "setting": "[1]; measured conc. 10.0 μg/L", "result": "85 ± 11"},
      {"measurement": "VTG (ng/mg of liver) Female", "setting": "[1]; measured conc. 10.0 μg/L", "result": "666 ± 96 ng/mg of liver"},
      {"measurement": "VTG (ng/mg of liver) Male", "setting": "[1]; measured conc. 10.0 μg/L", "result": "181 ± 30.0 ng/mg of liver"},
      {"measurement": "GSI Female", "setting": "[1]; measured conc. 10.0 μg/L", "result": 7.3, "unit": "%"},
      {"measurement": "GSI Male", "setting": "[1]; measured conc. 10.0 μg/L", "result": 0.89, "unit": "%"},
      {"measurement": "HSI Female", "setting": "[1]; measured conc. 10.0 μg/L", "result": 3.6, "unit": "%"},
      {"measurement": "HSI Male", "setting": "[1]; measured conc. 10.0 μg/L", "result": 2.2, "unit": "%"},
      {"measurement": "Length Female", "setting": "[1]; measured conc. 10.0 μg/L", "result": 32.3, "unit": "mm"},
      {"measurement": "Length Male", "setting": "[1]; measured conc. 10.0 μg/L", "result": 33.6, "unit": "mm"},
      {"measurement": "Weight Female", "setting": "[1]; measured conc. 10.0 μg/L", "result": 369, "unit": "mg"},
      {"measurement": "Weight Male", "setting": "[1]; measured conc. 10.0 μg/L", "result": 419, "unit": "mg"},
      {"measurement": "Fertility rate (%)", "setting": "[1]; measured conc. 83.3 μg/L", "result": 76, "unit": "%"},
      {"measurement": "Mortality (%) Female", "setting": "[1]; measured conc. 83.3 μg/L", "result": 8.3, "unit": "%"},
      {"measurement": "Mortality (%) Male", "setting": "[1]; measured conc. 83.3 μg/L", "result": 0, "unit": "%"},
      {"measurement": "Number of fertilized eggs", "setting": "[1]; measured conc. 83.3 μg/L", "result": 1.6},
      {"measurement": "Number of total eggs", "setting": "[1]; measured conc. 83.3 μg/L", "result": "2.2 ± 0.8 /female/day"},
      {"measurement": "SSC Female", "setting": "[1]; measured conc. 83.3 μg/L", "result": "0 ± 0"},
      {"measurement": "SSC Male", "setting": "[1]; measured conc. 83.3 μg/L", "result": "85 ± 7.0"},
      {"measurement": "VTG (ng/mg of liver) Female", "setting": "[1]; measured conc. 83.3 μg/L", "result": "335 ± 138 ng/mg of liver"},
      {"measurement": "VTG (ng/mg of liver) Male", "setting": "[1]; measured conc. 83.3 μg/L", "result": "319 ± 126 ng/mg of liver"},
      {"measurement": "GSI Female", "setting": "[1]; measured conc. 83.3 μg/L", "result": 11.5, "unit": "%"},
      {"measurement": "GSI Male", "setting": "[1]; measured conc. 83.3 μg/L", "result": 0.87, "unit": "%"},
      {"measurement": "HSI Female", "setting": "[1]; measured conc. 83.3 μg/L", "result": 4.2, "unit": "%"},
      {"measurement": "HSI Male", "setting": "[1]; measured conc. 83.3 μg/L", "result": 2.5, "unit": "%"},
      {"measurement": "Length Female", "setting": "[1]; measured conc. 83.3 μg/L", "result": 32.9, "unit": "mm"},
      {"measurement": "Length Male", "setting": "[1]; measured conc. 83.3 μg/L", "result": 32.5, "unit": "mm"},
      {"measurement": "Weight Female", "setting": "[1]; measured conc. 83.3 μg/L", "result": 418, "unit": "mg"},
      {"measurement": "Weight Male", "setting": "[1]; measured conc. 83.3 μg/L", "result": 374, "unit": "mg"},
      {"measurement": "effect on fecundity (number of total eggs), in words", "setting": "[1]; within the test concentrations, 21-day exposure", "result": "statistically significant decrease"},
      {"measurement": "LOEC on female VTG (reduction)", "setting": "Japanese medaka", "result": 1.3, "unit": "µg/L"}
    ]}
  ]
}
